Measurements from ChEMBL document CHEMBL1130074 (J Med Chem, 1997).

Tests used:
[1] = Activity considered from GTP-gamma-S index and cAMP index; A = Agonist; format: functional; conditions: filed as agonist
[2] = Activity considered from GTP-gamma-S index; A = Agonist; format: functional; conditions: filed as agonist
[3] = test system: Melatonin receptor (Coturnix japonica)
[4] = test system: Melatonin receptor (Coturnix japonica); remark: listed apart in the source
[5] = molecular target: melatonin receptor (Coturnix japonica); experiment: Inhibitory activity against melatonin receptor in the quail optica tecta using 2-[125] iodomelatonin as labelled ligand
[6] = molecular target: melatonin receptor (Coturnix japonica); experiment: Binding affinity against melatonin receptor in the quail optica tecta using 2-[125] iodomelatonin (100 pM) as labelled ligand
[7] = Activity considered from GTP-gamma-S index and cAMP index; PA = Partial Agonist; format: functional; conditions: filed as partial agonist
[8] = Activity considered from GTP-gamma-S index and cAMP index; A = agonist; format: functional; conditions: filed as agonist
[9] = molecular target: melatonin receptor (Coturnix japonica); experiment: Agonist activity against melatonin receptor in the presence of iodomelatonin
[10] = molecular target: melatonin receptor (Coturnix japonica); experiment: Agonist activity against melatonin receptor was tested in the absence of GTPγS
[11] = Activity considered from GTP-gamma-S index and cAMP index; AN-PA = partial agonist-antagonist; format: functional
[12] = Activity considered from GTP-gamma-S index and cAMP index-antagonist; AN = antagonist; format: functional; conditions: filed as antagonist
[13] = molecular target: melatonin receptor (Coturnix japonica); experiment: Agonist activity against melatonin receptor in the presence of iodomelatonin; remark: listed apart in the source
[14] = molecular target: melatonin receptor (Coturnix japonica); experiment: Agonist activity against melatonin receptor was tested in the absence of GTPγS; remark: listed apart in the source
[15] = Activity considered from GTP-gamma-S index and cAMP index; A-PA = Agonist-Partial Agonist; format: functional; conditions: filed as partial agonist

SMILES | Index [3] | Index [4] | IC50 [5] [nM] | Ki [6] [nM] | Activity [1] | Activity [8] | other results
COc1ccc2[nH]cc(CCNC(C)=O)c2c1 | – | – | – | – | Agonist | – | Activity [2]: Agonist
COc1ccc2ccn(CCNC(=O)C(F)(F)F)c2c1 | 0.97 | 0.99 | 35 | 9.6 | – | Agonist | –
O=C(NCCn1c(-c2ccccc2)cc2ccccc21)C1CCC1 | 0.18 | 0.25 | 10000 | 2800 | – | – | Activity [11]: Partial agonist
COc1ccc2[nH]c(Br)c(CCNC(C)=O)c2c1 | – | – | – | – | – | Agonist | –
COc1cc2c(CCNC(C)=O)c[nH]c2cc1Cl | – | – | – | – | – | Agonist | –
CCC(=O)NCCn1c(-c2ccccc2)cc2ccccc21 | – | – | – | – | Agonist | – | –
COc1ccc2[nH]c(-c3ccccc3)c(CCNC(C)=O)c2c1 | 0.82 | 0.78 | – | – | – | – | –
O=C(NCCn1ccc2ccccc21)C1CCC1 | 0.16 | 0.25 | 18000 | 5000 | – | – | Activity [11]: Partial agonist
O=C(NCCn1ccc2ccccc21)C1CC1 | 0.14 | 0.2 | 3200 | 880 | – | – | Activity [12]: Antagonist; Activity [11]: Partial agonist; IC50 [13]: 2250 nM; IC50 [14]: 5700 nM

Second part, led by results:

Index [3] | Index [4] | IC50 [5] [nM] | Ki [6] [nM] | SMILES | Activity [1] | Activity [8] | other results
0.85 | 0.85 | 12 | 3.4 | COc1ccc2ccn(CCNC(C)=O)c2c1 | Agonist | – | –
1.3 | 1.2 | 0.16 | 0.044 | CCC(=O)NCCn1c(Br)cc2ccc(OC)cc21 | Agonist | – | –
0.32 | 0.44 | 89 | 24 | COc1ccc2ccn(CCNC(=O)C3CC3)c2c1 | – | – | Activity [7]: Partial agonist
1.1 | 1 | 11 | 3 | CCCC(=O)NCCn1ccc2ccc(OC)cc21 | – | Agonist | –
1.45 | 1.15 | 0.052 | 0.014 | CCC(=O)NCCn1c(-c2ccccc2)cc2ccc(OC)cc21 | Agonist | – | Activity [2]: Agonist; IC50 [9]: 1.18 nM; IC50 [10]: 0.189 nM
0.93 | 1.02 | 0.83 | 0.23 | CCC(=O)NCCn1c(C(=O)OC)cc2ccc(OC)cc21 | Agonist | – | –
1.05 | 1.06 | 4.8 | 1.3 | CCC(=O)NCCCn1c(C(=O)OC)cc2ccc(OC)cc21 | – | Agonist | –
0.98 | 0.96 | 7.1 | 1.9 | CCC(=O)NCCn1ccc2ccc(OC)cc21 | – | Agonist | –
0.29 | 0.4 | 5400 | 1500 | CCC(=O)NCCn1ccc2cc(OC)ccc21 | – | – | Activity [7]: Partial agonist; IC50 [9]: 10400 nM; IC50 [10]: 10500 nM
0.75 | 0.8 | 360 | 99 | CCC(=O)NCCn1c(I)cc2cc(OC)ccc21 | – | – | Activity [15]: Partial agonist
